One block for each molecule: values may come before it.
Assay: in vitro
Details: for Concentration (μM) of analyte PEA, 0 min / Concentration (μM) of analyte PEA, 10 min / Concentration (μM) of analyte PEA, 20 min / Concentration (μM) of analyte PEA, 30 min / Concentration (μM) of analyte PEA, 60 min / % Remaining of Initial (n = 1), 0 min / % Remaining of Initial (n = 1), 10 min / % Remaining of Initial (n = 1), 20 min / % Remaining of Initial (n = 1), 30 min / % Remaining of Initial (n = 1), 60 min: 1 μM; for % Remaining of Initial (n = 1), 0 min: s9, 0 h; for % Remaining of Initial (n = 1), 10 min: s9, 10 min; for % Remaining of Initial (n = 1), 20 min: s9, 20 min; for % Remaining of Initial (n = 1), 30 min: s9, 0.5 h; for % Remaining of Initial (n = 1), 60 min: s9, 1 h; for half-life at 1 μM: s9, Half-life (min)
In short: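 Read-out: percent of parent left relative to time zero, measured by electrospray LC-MS/MS against matrix-matched standards. Both the dosed prodrug and PEA were quantified. Compound ran at 1 µM final with cofactor-initiated S9 incubation at 37 °C, sampled over 60 min.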

Concentration (μM) of analyte PEA, 0 min (both, human): 0.35 µM
Concentration (μM) of analyte PEA, 10 min (both, human): 0.30 µM
Concentration (μM) of analyte PEA, 20 min (both, human): 0.18 µM
Concentration (μM) of analyte PEA, 30 min (both, human): 0.088 µM
Concentration (μM) of analyte PEA, 60 min (both, human): 0.028 µM
% Remaining of Initial (n = 1), 0 min (both, human): 100%
% Remaining of Initial (n = 1), 10 min (both, human): <1.0%
% Remaining of Initial (n = 1), 20 min (both, human): <1.0%
% Remaining of Initial (n = 1), 30 min (both, human): <1.0%
% Remaining of Initial (n = 1), 60 min (both, human): <1.0%
half-life at 1 μM (both, human): < 1 min
Concentration (μM) of analyte PEA, 0 min (male, Beagle, dog): 0.32 µM
Concentration (μM) of analyte PEA, 10 min (male, Beagle, dog): 0.29 µM
Concentration (μM) of analyte PEA, 20 min (male, Beagle, dog): 0.21 µM
Concentration (μM) of analyte PEA, 30 min (male, Beagle, dog): 0.18 µM
Concentration (μM) of analyte PEA, 60 min (male, Beagle, dog): 0.078 µM
% Remaining of Initial (n = 1), 0 min (male, Beagle, dog): 100%
% Remaining of Initial (n = 1), 10 min (male, Beagle, dog): <1.0%
% Remaining of Initial (n = 1), 20 min (male, Beagle, dog): <1.0%
% Remaining of Initial (n = 1), 30 min (male, Beagle, dog): <1.0%
% Remaining of Initial (n = 1), 60 min (male, Beagle, dog): <1.0%
half-life at 1 μM (male, Beagle, dog): < 1 min
Concentration (μM) of analyte PEA, 0 min (male, CD-1, mouse): 0.52 µM
Concentration (μM) of analyte PEA, 10 min (male, CD-1, mouse): 0.23 µM
Concentration (μM) of analyte PEA, 20 min (male, CD-1, mouse): 0.13 µM
Concentration (μM) of analyte PEA, 30 min (male, CD-1, mouse): 0.077 µM
Concentration (μM) of analyte PEA, 60 min (male, CD-1, mouse): 0.022 µM
% Remaining of Initial (n = 1), 0 min (male, CD-1, mouse): 100%
% Remaining of Initial (n = 1), 10 min (male, CD-1, mouse): <1.0%
% Remaining of Initial (n = 1), 20 min (male, CD-1, mouse): <1.0%
% Remaining of Initial (n = 1), 30 min (male, CD-1, mouse): <1.0%
% Remaining of Initial (n = 1), 60 min (male, CD-1, mouse): <1.0%
half-life at 1 μM (male, CD-1, mouse): < 1 min
Concentration (μM) of analyte PEA, 0 min (male, Sprague-Dawley, rat): 0.20 µM
Concentration (μM) of analyte PEA, 10 min (male, Sprague-Dawley, rat): 0.31 µM
Concentration (μM) of analyte PEA, 20 min (male, Sprague-Dawley, rat): 0.18 µM
Concentration (μM) of analyte PEA, 30 min (male, Sprague-Dawley, rat): 0.11 µM
Concentration (μM) of analyte PEA, 60 min (male, Sprague-Dawley, rat): 0.029 µM
% Remaining of Initial (n = 1), 0 min (male, Sprague-Dawley, rat): 100%
% Remaining of Initial (n = 1), 10 min (male, Sprague-Dawley, rat): 13%
% Remaining of Initial (n = 1), 20 min (male, Sprague-Dawley, rat): 2.1%
% Remaining of Initial (n = 1), 30 min (male, Sprague-Dawley, rat): <1.0%
% Remaining of Initial (n = 1), 60 min (male, Sprague-Dawley, rat): <1.0%
SMILES: CCCCCCCCCCCCCCCC(=O)NCCOC(=O)CCC(=O)OCC(O)CO (stereo not shown) [Compound I-9]

Concentration (μM) of analyte PEA, 0 min (both, human): 0.047 µM
Concentration (μM) of analyte PEA, 10 min (both, human): 0.25 µM
Concentration (μM) of analyte PEA, 20 min (both, human): 0.18 µM
Concentration (μM) of analyte PEA, 30 min (both, human): 0.14 µM
Concentration (μM) of analyte PEA, 60 min (both, human): 0.033 µM
% Remaining of Initial (n = 1), 0 min (both, human): 100%
% Remaining of Initial (n = 1), 10 min (both, human): 2.8%
% Remaining of Initial (n = 1), 20 min (both, human): <1.0%
% Remaining of Initial (n = 1), 30 min (both, human): <1.0%
% Remaining of Initial (n = 1), 60 min (both, human): <1.0%
Concentration (μM) of analyte PEA, 0 min (male, Beagle, dog): 0.069 µM
Concentration (μM) of analyte PEA, 10 min (male, Beagle, dog): 0.51 µM
Concentration (μM) of analyte PEA, 20 min (male, Beagle, dog): 0.34 µM
Concentration (μM) of analyte PEA, 30 min (male, Beagle, dog): 0.29 µM
Concentration (μM) of analyte PEA, 60 min (male, Beagle, dog): 0.13 µM
% Remaining of Initial (n = 1), 0 min (male, Beagle, dog): 100%
% Remaining of Initial (n = 1), 10 min (male, Beagle, dog): 4.6%
% Remaining of Initial (n = 1), 20 min (male, Beagle, dog): 1.6%
% Remaining of Initial (n = 1), 30 min (male, Beagle, dog): <1.0%
% Remaining of Initial (n = 1), 60 min (male, Beagle, dog): <1.0%
Concentration (μM) of analyte PEA, 0 min (male, CD-1, mouse): 0.18 µM
Concentration (μM) of analyte PEA, 10 min (male, CD-1, mouse): 0.24 µM
Concentration (μM) of analyte PEA, 20 min (male, CD-1, mouse): 0.13 µM
Concentration (μM) of analyte PEA, 30 min (male, CD-1, mouse): 0.083 µM
Concentration (μM) of analyte PEA, 60 min (male, CD-1, mouse): 0.015 µM
% Remaining of Initial (n = 1), 0 min (male, CD-1, mouse): 100%
% Remaining of Initial (n = 1), 10 min (male, CD-1, mouse): <1.0%
% Remaining of Initial (n = 1), 20 min (male, CD-1, mouse): <1.0%
% Remaining of Initial (n = 1), 30 min (male, CD-1, mouse): <1.0%
% Remaining of Initial (n = 1), 60 min (male, CD-1, mouse): <1.0%
half-life at 1 μM (male, CD-1, mouse): < 1 min
Concentration (μM) of analyte PEA, 0 min (male, Sprague-Dawley, rat): 0 µM
Concentration (μM) of analyte PEA, 10 min (male, Sprague-Dawley, rat): 0.14 µM
Concentration (μM) of analyte PEA, 20 min (male, Sprague-Dawley, rat): 0.091 µM
Concentration (μM) of analyte PEA, 30 min (male, Sprague-Dawley, rat): 0.059 µM
Concentration (μM) of analyte PEA, 60 min (male, Sprague-Dawley, rat): 0.0062 µM
% Remaining of Initial (n = 1), 0 min (male, Sprague-Dawley, rat): 100%
% Remaining of Initial (n = 1), 10 min (male, Sprague-Dawley, rat): <1.0%
% Remaining of Initial (n = 1), 20 min (male, Sprague-Dawley, rat): <1.0%
% Remaining of Initial (n = 1), 30 min (male, Sprague-Dawley, rat): <1.0%
% Remaining of Initial (n = 1), 60 min (male, Sprague-Dawley, rat): <1.0%
half-life at 1 μM (male, Sprague-Dawley, rat): < 1 min
SMILES: CCCCCCCCCCCCCCCC(=O)NCCOC(=O)CCC(=O)OCC(COC(=O)CCC)OC(=O)CCC (stereo not shown) [Compound I-11]

From patent US11547681B2, “N-acylethanolamide derivatives and uses thereof” (ELIEM THERAPEUTICS, INC., priority 2016, dated 2023)
